The structures appear in SMILES notation.

MAPK14 (human), sequence (Q16539 whole entry, looked up): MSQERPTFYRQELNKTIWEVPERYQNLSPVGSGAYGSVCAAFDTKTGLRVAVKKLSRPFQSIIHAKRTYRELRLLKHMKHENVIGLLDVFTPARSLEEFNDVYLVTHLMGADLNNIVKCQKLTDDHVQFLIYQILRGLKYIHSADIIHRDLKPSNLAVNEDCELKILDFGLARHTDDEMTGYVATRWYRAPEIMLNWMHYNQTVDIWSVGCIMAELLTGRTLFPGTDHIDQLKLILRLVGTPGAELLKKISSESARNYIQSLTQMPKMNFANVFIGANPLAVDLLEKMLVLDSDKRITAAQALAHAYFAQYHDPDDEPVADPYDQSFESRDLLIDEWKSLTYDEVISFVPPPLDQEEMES

This assay addresses MAPK14 (human) (UniProt Q16539). Nature of the assay: Enzyme Assay.
For the compound `C[C@H]1CCCCN1c1nnc2ccc(O[C@@H]3CC[C@H](NC(=O)Nc4cc(C(C)(C)C)nn4-c4cccc(CCN5CCCN(C)CC5)c4)c4ccccc43)cn12`, the IC50 was < 10 nM.

As to `C[C@H]1CCCCN1c1nnc2ccc(O[C@@H]3CC[C@H](NC(=O)Nc4cc(C(C)(C)C)nn4-c4cccc(CCN5CCCCC5)c4)c4ccccc43)cn12`, the IC50 was < 10 nM.

As to `CC(C)(C)c1cc(NC(=O)N[C@H]2CC[C@@H](Oc3ccc4nnc(N5CCCCC5)n4c3)c3ccccc32)n(-c2cccc(CN3CCN(CCO)CC3)c2)n1`, the IC50 is < 10 nM.

As for `Cc1ccc(-n2nc(C(C)(C)C)cc2NC(=O)N[C@H]2CC[C@@H](Oc3ccc4nnc(N(C)CCN(C)C)n4c3)c3ccccc32)cc1`, the IC50 is < 10 nM.

With `C[C@H]1CCCCN1c1nnc2ccc(O[C@@H]3CC[C@H](NC(=O)Nc4cc(C(C)(C)C)nn4-c4cccc(CCN5CCCC5)c4)c4ccccc43)cn12`, the IC50 is < 10 nM.

With `Cc1ccc(-c2nc(C(C)(C)C)[nH]c2NC(=O)N[C@H]2CC[C@@H](Oc3ccc4nnc(N5CCCCC5)n4c3)c3ccccc32)cc1`, the IC50 was < 10 nM.

Take `Cc1ccc(-n2nc(C(C)(C)C)cc2NC(=O)N[C@H]2CC[C@@H](Oc3ccc4nnc([C@@H]5CCN(C)C5)n4c3)c3ccccc32)cc1`: the IC50 is < 10 nM.

As for `CN(C)CCn1cnc(-n2nc(C(C)(C)C)cc2NC(=O)N[C@H]2CC[C@@H](Oc3ccc4nnc(N5CCCCC5)n4c3)c3ccccc32)c1`, the IC50 is < 10 nM.

`Cc1ccc(-n2nc(C(C)(C)C)cc2NC(=O)N[C@H]2CC[C@@H](Oc3ccc4nnc(CC5CCN(C)CC5)n4c3)c3ccccc32)cc1`: the IC50 was < 10 nM.

As to `Cc1ccc(-n2nc(C(C)(C)C)cc2NC(=O)N[C@H]2CC[C@@H](Oc3ccc4nnc(N5CCC[C@@H](CO)C5)n4c3)c3ccccc32)cc1`, the IC50 was < 10 nM.

As to `CN1CCC[C@H]1c1nnc2ccc(O[C@@H]3CC[C@H](NC(=O)Nc4cc(C(C)(C)C)nn4-c4cccc(SCCO)c4)c4ccccc43)cn12`, the IC50 was < 10 nM.

With `Cc1ccc(-n2nc(C(C)(C)C)cc2NC(=O)N[C@H]2CC[C@@H](Oc3ccc4nnc(N5CCC(C(C)(C)O)CC5)n4c3)c3ccccc32)cc1`, the IC50 is < 10 nM.

In the case of `C[C@@H]1CCC[C@H](C)N1c1nnc2ccc(O[C@@H]3CC[C@H](NC(=O)Nc4cc(C(C)(C)C)nn4-c4cnn(CCN5CCOCC5)c4)c4ccccc43)cn12`, the IC50 is < 10 nM.

As to `C[C@@H]1CCC[C@H](C)N1c1nnc2ccc(O[C@@H]3CC[C@H](NC(=O)Nc4cc(C(C)(C)C)nn4-c4cccc(CN5CCOCC5)c4)c4ccccc43)cn12`, the IC50 was < 10 nM.

As to `C[C@H]1CCCCN1c1nnc2ccc(O[C@@H]3CC[C@H](NC(=O)Nc4cc(C(C)(C)C)nn4-c4cccc(CN5CCC(F)CC5)c4)c4ccccc43)cn12`, the IC50 was < 10 nM.

With `Cc1ccc(-n2nc(C(C)(C)C)cc2NC(=O)N[C@H]2CC[C@@H](Oc3ccc4nnc(N5CC[C@@H](O)C5)n4c3)c3ccccc32)cc1`, the IC50 is < 10 nM.

With `Cc1ccc(-n2nc(C(C)(C)C)cc2NC(=O)N[C@H]2CC[C@@H](Oc3ccc4nnc(CC5CCN(CC(F)F)CC5)n4c3)c3ccccc32)cc1`, the IC50 was < 10 nM.

Regarding `C[C@@H]1CCC[C@H](C)N1c1nnc2ccc(O[C@@H]3CC[C@H](NC(=O)Nc4cc(C(C)(C)C)nn4-c4cnn(CCN(C)C)c4)c4ccccc43)cn12`, the IC50 is < 10 nM.

On to `Cc1ccc(-n2nc(C(C)(C)C)cc2NC(=O)N[C@H]2CC[C@@H](Oc3ccc4cnn(CCO)c4c3)c3ccccc32)cc1`, for which the IC50 was < 10 nM.

In the case of `Cc1ccc(-n2nc(C(C)(C)C)cc2NC(=O)N[C@H]2CC[C@@H](Oc3ccc4nnc(N5CCCCCC5)n4c3)c3ccccc32)cc1`, the IC50 was < 10 nM.

With `Cc1ccc(-n2nc(C(C)(C)C)cc2NC(=O)N[C@H]2CC[C@@H](Oc3ccc4nnc([C@@H]5CCCN5C(C)C)n4c3)c3ccccc32)cc1`, the IC50 was < 10 nM.

In the case of `C[C@H]1CCCCN1c1nnc2ccc(O[C@@H]3CC[C@H](NC(=O)Nc4cc(C(C)(C)C)nn4-c4cccc(OCCN5C6CCCC5CC6)c4)c4ccccc43)cn12`, the IC50 was < 10 nM.

Consider `CN1CCCC[C@H]1c1nnc2ccc(O[C@@H]3CC[C@H](NC(=O)Nc4cc(C(C)(C)C)nn4CCO)c4ccccc43)cn12`, for which the IC50 was < 10 nM.

With `Cc1ccc(-n2nc(C(C)(C)C)cc2NC(=O)N[C@H]2CC[C@@H](Oc3ccc4nnc(N5CCCC[C@@H]5C)n4c3)c3ccccc32)cc1`, the IC50 is < 10 nM.

Regarding `Cc1ccc(-n2nc(C(C)(C)C)cc2NC(=O)N[C@H]2CC[C@@H](Oc3ccc4nnc(CCN5CCN(C)CC5)n4c3)c3ccccc32)cc1`, the IC50 was < 10 nM.

`C[C@H]1CCCCN1c1nnc2ccc(O[C@@H]3CC[C@H](NC(=O)Nc4cc(C(C)(C)C)nn4-c4ccc(CN5CCN(C)CC5)cc4)c4ccccc43)cn12`: the IC50 was < 10 nM.

For the compound `C[C@@H]1CCC[C@H](C)N1c1nnc2ccc(O[C@@H]3CC[C@H](NC(=O)Nc4cc(F)cc(N5CCOCC5)c4)c4ccccc43)cn12`, the IC50 was < 10 nM.

For the compound `CN(C)CCOc1cccc(-n2nc(C(C)(C)C)cc2NC(=O)N[C@H]2CC[C@@H](Oc3ccc4nnc(N5CCCCC5)n4c3)c3ccccc32)c1`, the IC50 is < 10 nM.

For the compound `C[C@H]1CCCCN1c1nnc2ccc(O[C@@H]3CC[C@H](NC(=O)Nc4cc(C(C)(C)C)nn4-c4cccc(CN5CCCC5)c4)c4ccccc43)cn12`, the IC50 was < 10 nM.

As to `Cc1ccc(-n2nc(C(C)(C)C)cc2NC(=O)N[C@H]2CC[C@@H](Oc3ccc4nnc(N5CCN(CCO)CC5)n4c3)c3ccccc32)cc1`, the IC50 is < 10 nM.

For the compound `C[C@H]1CCCCN1c1nnc2ccc(O[C@@H]3CC[C@H](NC(=O)Nc4cc(C(C)(C)C)nn4-c4cccc(CCN(C)C)c4)c4ccccc43)cn12`, the IC50 was < 10 nM.

Regarding `C[C@H]1CCCCN1c1nnc2ccc(O[C@@H]3CC[C@H](NC(=O)Nc4cc(C(C)(C)C)nn4-c4cccc(CN5CCOCC5)c4)c4ccccc43)cn12`, the IC50 is < 10 nM.

Consider `Cc1ccc(-n2nc(C(C)(C)C)cc2NC(=O)N[C@H]2CC[C@@H](Oc3ccc4nnc(N5CCC(C)(O)CC5)n4c3)c3ccccc32)cc1`, for which the IC50 is < 10 nM.

Consider `C[C@H]1CCCCN1c1nnc2ccc(O[C@@H]3CC[C@H](NC(=O)Nc4cc(C(C)(C)C)nn4-c4ccc(CN5CCCCC5)cc4)c4ccccc43)cn12`, for which the IC50 was < 10 nM.

Turning to `Cc1ccc(-n2nc(C(C)(C)CO)cc2NC(=O)N[C@H]2CC[C@@H](Oc3ccc4nnc(N5CCCCC5)n4c3)c3ccccc32)cc1`, the IC50 is < 10 nM.

For the compound `Cc1ccc(-n2nc(C(C)(C)C)cc2NC(=O)N[C@H]2CC[C@H](Oc3ccc4nnc([C@@H]5CCCN5C)n4c3)c3ccccc32)cc1`, the IC50 was < 10 nM.

As to `Cc1ccc(-n2nc(C(C)(C)C)cc2NC(=O)N[C@H]2CC[C@@H](Oc3ccc4nnc([C@@H]5CC(C)(C)CN5C)n4c3)c3ccccc32)cc1`, the IC50 was < 10 nM.

Take `COc1c(NC(=O)N[C@H]2CC[C@@H](Oc3ccc4nnc([C@@H]5CCCN5C)n4c3)c3ccccc32)cc(C(C)(C)C)cc1NS(C)(=O)=O`: the IC50 is < 10 nM.

On to `Cc1ccc(-n2nc(C(C)(C)C)cc2NC(=O)N[C@H]2CC[C@@H](Oc3ccc4nnc(NC(C)C)n4c3)c3ccccc32)cc1`, for which the IC50 was < 10 nM.

On to `CC(C)(C)c1cc(NC(=O)N[C@H]2CC[C@@H](Oc3ccc4nnc(N5CCCCC5)n4c3)c3ccccc32)n(-c2cccc(CO)c2)n1`, for which the IC50 was < 10 nM.

Take `Cc1ccc(-n2nc(C(C)(C)C)cc2NC(=O)N[C@H]2CC[C@@H](Oc3ccc4nnc(N5CCCC5)n4c3)c3ccccc32)cc1`: the IC50 is < 10 nM.

Take `C[C@H]1CCCCN1c1nnc2ccc(O[C@@H]3CC[C@H](NC(=O)Nc4cc(C(C)(C)C)nn4-c4cccc(CCN5CCN(C)CC5)c4)c4ccccc43)cn12`: the IC50 was < 10 nM.

As for `CCN(C)CCc1cccc(-n2nc(C(C)(C)C)cc2NC(=O)N[C@H]2CC[C@@H](Oc3ccc4nnc(N5CCCC[C@@H]5C)n4c3)c3ccccc32)c1`, the IC50 was < 10 nM.

With `Cc1ccc(-n2nc(C(C)(C)C)cc2NC(=O)N[C@H]2CC[C@@H](Oc3ccc4nnc([C@]5(C)CCCN5C)n4c3)c3ccccc32)cc1`, the IC50 is < 10 nM.

For the compound `COc1c(NC(=O)N[C@H]2CC[C@@H](Oc3ccc4nnc(N5CCCCC5)n4c3)c3ccccc32)cc(C(C)(C)C)cc1NS(C)(=O)=O`, the IC50 was < 10 nM.

As for `Cc1ccc(-n2nc(C(C)(C)C)cc2NC(=O)N[C@H]2CC[C@@H](Oc3ccc4nnc(N(C)C)n4c3)c3ccccc32)cc1`, the IC50 was < 10 nM.

As to `C[C@H]1CCCCN1c1nnc2ccc(O[C@@H]3CC[C@H](NC(=O)Nc4cc(C(C)(C)C)nn4CCN4CCCCC4)c4ccccc43)cn12`, the IC50 is < 10 nM.

For `Cc1ccc(-n2nc(C(C)(C)C)cc2NC(=O)N[C@H]2CC[C@@H](Oc3ccc4nnc(N5CCCC[C@H]5C)n4c3)c3ccccc32)cc1`, the IC50 was < 10 nM.

As to `CC(C)(C)c1cc(NC(=O)N[C@H]2CC[C@@H](Oc3ccc4nnc(N5CCCCC5)n4c3)c3ccccc32)n(-c2ccc(O)cc2)n1`, the IC50 was < 10 nM.

For `C[C@@H]1CCCCN1c1nnc2ccc(O[C@@H]3CC[C@H](NC(=O)Nc4cc(C(C)(C)C)nn4-c4cccc(OCCN(C)C)c4)c4ccccc43)cn12`, the IC50 was < 10 nM.

`CN1CCC[C@H]1c1nnc2ccc(O[C@@H]3CC[C@H](NC(=O)Nc4cc(C(C)(C)C)nn4-c4ccc(CO)cc4)c4ccccc43)cn12`: the IC50 is < 10 nM.

On to `Cc1ccc(-n2nc(C(C)(C)C)cc2NC(=O)N[C@H]2CC[C@@H](Oc3ccc4nnc(N5CCC(CO)CC5)n4c3)c3ccccc32)cc1`, for which the IC50 is < 10 nM.

For the compound `CCN(C)CCOc1cccc(-n2nc(C(C)(C)C)cc2NC(=O)N[C@H]2CC[C@@H](Oc3ccc4nnc(N5CCCC[C@@H]5C)n4c3)c3ccccc32)c1`, the IC50 was < 10 nM.

With `Cc1ccc(-n2nc(C(C)(C)C)cc2NC(=O)N[C@H]2CC[C@@H](Oc3ccc4nnc(-c5ccccc5CN5CCOCC5)n4c3)c3ccccc32)cc1`, the IC50 was < 10 nM.

Turning to `Cc1ccc(-n2nc(C(C)(C)C)cc2NC(=O)N[C@H]2CC[C@@H](Oc3ccc4nnc(N)n4c3)c3ccccc32)cc1`, the IC50 is < 10 nM.

For the compound `C[C@H]1CCCCN1c1nnc2ccc(O[C@@H]3CC[C@H](NC(=O)Nc4cc(C(C)(C)C)nn4CCN4CCOCC4)c4ccccc43)cn12`, the IC50 was < 10 nM.

With `C[C@H]1CCCCN1c1nnc2ccc(O[C@@H]3CC[C@H](NC(=O)Nc4cc(C(C)(C)C)nn4CCO)c4ccccc43)cn12`, the IC50 is < 10 nM.

With `CC(C)(C)c1cc(NC(=O)N[C@H]2CC[C@@H](Oc3ccc4nnc(N5CCCCC5)n4c3)c3ccccc32)n(-c2cccc(CN3CCC(O)CC3)c2)n1`, the IC50 was < 10 nM.

The values above are taken from the Kinase Knowledgebase extract (Sharma et al. 2016).
